The text below walks through data of ChEMBL document CHEMBL1821555, “Identification of a series of 4-[3-(quinolin-2-yl)-1,2,4-oxadiazol-5-yl]piperazinyl ureas as potent smoothened antagonist hedgehog pathway inhibitors” (Bioorg Med Chem Lett, 2011).

The target of data set [1] is T1, Protein smoothened (Homo sapiens, UniProt Q99835). The data set can be described thus: Displacement of Bodipy-labelled cyclopamine from Smo expressed in COS-1 cells in presence of 2% FBS after 4 to 6 hrs by FACS flow cytometric analysis. The format is cell-based.
For data set [2], the target named is T1, Protein smoothened. The data set can be described thus: Inhibition of Bodipy-labelled cyclopamine binding to Smo expressed in COS-1 cells at 4 uM in presence of 2% FBS after 4 to 6 hrs by FACS flow cytometric analysis. The format is cell-based.
In data set [3] the test system is Shh Light II. Briefly: Inhibition of Shh signaling in mouse Shh-light2 cells by Gli-dependent firefly luciferase reporter gene assay. The class given is functional, cell-based.
A short description of data set [4]: Intrinsic clearance in rat liver microsomes assessed per mg of protein. The format is ADME, Microsome.
The nature of data set [5]: Lipophilicity, log D of the compound. The class given is physicochemical. To be noted: octanol/water.
The next data set concerns the target CYP2C9 (Homo sapiens, UniProt P11712). Briefly: Inhibition of CYP2C9 at 10 uM. The class given is ADME.
In another data set the target is CYP3A4 (Homo sapiens, UniProt P08684). The data set can be described thus: Inhibition of CYP3A4 at 10 uM. The format is ADME.
For data set [6], the target named is T1, Protein smoothened. The data set can be described thus: Inhibition of Bodipy-labelled cyclopamine binding to Smo expressed in COS-1 cells in presence of 20% NHS after 4 to 6 hrs by FACS flow cytometric analysis. The class given is cell-based.
The subject of data set [7] is Shh Light II. Briefly: Inhibition of Shh signaling in mouse Shh-light2 cells at 10 uM by Gli-dependent firefly luciferase reporter gene assay. The format is functional.
The target of data set [8] is T1, Protein smoothened. Briefly: Inhibition of Bodipy-labelled cyclopamine binding to Smo expressed in COS-1 cells at 10 uM in presence of 2% FBS after 4 to 6 hrs by FACS flow cytometric analysis. The class given is cell-based.
Data set [9] in a line: Clearance in rat. The format is ADME, organism-based. To be noted: in vivo.
Data set [10] in a line: Terminal half life in rat. The class given is ADME, organism-based. To be noted: in vivo, read-out: beta t1/2 (converted).
Data set [11] is described as follows: Intrinsic clearance in human liver microsomes assessed per mg of protein. The format is ADME, Microsome.
Data set [12] in a line: Clearance in dog. To be noted: in vivo. The class given is ADME, organism-based, Canis lupus familiaris.
The nature of data set [13]: Half life in dog. The class given is ADME, organism-based, Canis lupus familiaris. To be noted: in vivo.
A short description of data set [14]: Inhibition of cytochrome P450 at 30 uM. The format is ADME.
A short description of data set [15]: Induction of cytochrome P450 at 30 uM. The format is ADME.
Data set [16] in a line: Intrinsic clearance in dog liver microsomes assessed per mg of protein. The format is ADME, Canis lupus familiaris, Microsome.
A short description of data set [17]: Fraction unbound in rat plasma. The format is ADME, cell-free.
The nature of data set [18]: Fraction unbound in human plasma. The format is ADME, cell-free.
The nature of data set [19]: Oral bioavailability in rat. To be noted: in vivo. The format is ADME, organism-based.
Data set [20] relates to Potassium voltage-gated channel subfamily H member 2 (hERG), Homo sapiens. Briefly: Inhibition of human ERG at 10 uM.
Data set [21] has as its target Potassium voltage-gated channel subfamily H member 2 (hERG), Homo sapiens. The data set can be described thus: Inhibition of human ERG.
For data set [22], the target named is T1, Protein smoothened. The data set can be described thus: Inhibition of Bodipy-labelled cyclopamine binding to Smo expressed in COS-1 cells at 25 uM in presence of 20% NHS after 4 to 6 hrs by FACS flow cytometric analysis. The format is cell-based.
The target of data set [23] is T1, Protein smoothened. The data set can be described thus: Inhibition of Bodipy-labelled cyclopamine binding to Smo expressed in COS-1 cells at 2 uM in presence of 2% FBS after 4 to 6 hrs by FACS flow cytometric analysis. The format is cell-based.
The target in data set [24] is T1, Protein smoothened. The data set can be described thus: Inhibition of Bodipy-labelled cyclopamine binding to Smo expressed in COS-1 cells at 2.5 uM in presence of 2% FBS after 4 to 6 hrs by FACS flow cytometric analysis. The format is cell-based.
The subject of data set [25] is Shh Light II. Briefly: Inhibition of Shh signaling in mouse Shh-light2 cells at 20 uM by Gli-dependent firefly luciferase reporter gene assay. The format is functional.
Another data set addresses Cytochrome P450 2D6 (Homo sapiens, UniProt P10635). The data set can be described thus: Inhibition of CYP2D6. The format is ADME.
The target in a further data set is Cytochrome P450 2C9 (Homo sapiens, UniProt P11712). The data set can be described thus: Inhibition of CYP2C9. The format is ADME.
Another data set deals with Cytochrome P450 3A4 (Homo sapiens, UniProt P08684). The data set can be described thus: Inhibition of CYP3A4. The class given is ADME.

Molecules are shown by their SMILES.

T1 sequence (Q99835 whole entry): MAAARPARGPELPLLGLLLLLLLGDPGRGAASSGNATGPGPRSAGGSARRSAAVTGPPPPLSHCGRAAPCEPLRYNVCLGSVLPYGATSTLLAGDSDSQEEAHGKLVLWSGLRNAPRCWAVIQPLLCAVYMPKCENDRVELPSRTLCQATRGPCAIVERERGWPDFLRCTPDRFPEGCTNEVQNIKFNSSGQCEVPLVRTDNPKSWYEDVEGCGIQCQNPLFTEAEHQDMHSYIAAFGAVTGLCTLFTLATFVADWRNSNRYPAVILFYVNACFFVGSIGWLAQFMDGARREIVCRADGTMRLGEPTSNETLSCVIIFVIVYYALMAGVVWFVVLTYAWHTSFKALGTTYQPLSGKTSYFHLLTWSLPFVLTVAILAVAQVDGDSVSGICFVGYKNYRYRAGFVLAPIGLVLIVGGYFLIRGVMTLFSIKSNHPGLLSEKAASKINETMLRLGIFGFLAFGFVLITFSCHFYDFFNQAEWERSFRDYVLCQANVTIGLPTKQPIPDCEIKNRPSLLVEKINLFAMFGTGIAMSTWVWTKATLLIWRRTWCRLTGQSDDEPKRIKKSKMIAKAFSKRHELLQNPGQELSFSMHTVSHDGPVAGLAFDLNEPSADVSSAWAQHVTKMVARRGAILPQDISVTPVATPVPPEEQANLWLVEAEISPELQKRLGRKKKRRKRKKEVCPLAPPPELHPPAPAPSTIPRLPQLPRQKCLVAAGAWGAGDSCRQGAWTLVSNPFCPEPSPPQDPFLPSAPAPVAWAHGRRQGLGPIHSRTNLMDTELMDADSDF
Sequence of CYP3A4 (P08684 whole entry): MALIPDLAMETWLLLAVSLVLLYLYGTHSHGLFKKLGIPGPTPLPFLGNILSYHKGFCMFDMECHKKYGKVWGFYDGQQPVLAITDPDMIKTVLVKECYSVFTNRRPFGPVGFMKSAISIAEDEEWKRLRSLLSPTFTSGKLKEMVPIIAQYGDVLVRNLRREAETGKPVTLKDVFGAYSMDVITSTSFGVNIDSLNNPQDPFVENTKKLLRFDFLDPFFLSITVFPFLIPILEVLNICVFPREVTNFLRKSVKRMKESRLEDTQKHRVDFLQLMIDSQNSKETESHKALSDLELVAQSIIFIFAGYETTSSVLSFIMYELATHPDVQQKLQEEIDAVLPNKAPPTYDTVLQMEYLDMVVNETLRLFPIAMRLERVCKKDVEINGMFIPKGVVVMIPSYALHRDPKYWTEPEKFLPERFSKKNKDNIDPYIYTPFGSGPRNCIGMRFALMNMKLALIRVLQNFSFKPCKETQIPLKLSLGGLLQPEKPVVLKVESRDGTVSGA
Sequence of CYP2C9 (P11712 whole entry): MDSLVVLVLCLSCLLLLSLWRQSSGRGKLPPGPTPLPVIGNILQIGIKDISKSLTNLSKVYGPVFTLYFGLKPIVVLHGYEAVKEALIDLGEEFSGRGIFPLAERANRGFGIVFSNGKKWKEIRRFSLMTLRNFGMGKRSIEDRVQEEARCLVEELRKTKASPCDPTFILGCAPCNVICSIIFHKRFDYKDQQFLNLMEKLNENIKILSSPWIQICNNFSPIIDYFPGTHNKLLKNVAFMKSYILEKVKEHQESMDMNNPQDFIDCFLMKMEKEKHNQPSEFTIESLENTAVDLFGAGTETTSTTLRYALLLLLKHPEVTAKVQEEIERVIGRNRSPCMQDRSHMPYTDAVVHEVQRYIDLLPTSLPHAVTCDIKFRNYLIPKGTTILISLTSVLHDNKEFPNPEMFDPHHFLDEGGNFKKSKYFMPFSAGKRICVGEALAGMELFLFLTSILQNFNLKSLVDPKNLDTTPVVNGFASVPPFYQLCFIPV
Sequence of Cytochrome P450 2D6 (P10635 whole entry): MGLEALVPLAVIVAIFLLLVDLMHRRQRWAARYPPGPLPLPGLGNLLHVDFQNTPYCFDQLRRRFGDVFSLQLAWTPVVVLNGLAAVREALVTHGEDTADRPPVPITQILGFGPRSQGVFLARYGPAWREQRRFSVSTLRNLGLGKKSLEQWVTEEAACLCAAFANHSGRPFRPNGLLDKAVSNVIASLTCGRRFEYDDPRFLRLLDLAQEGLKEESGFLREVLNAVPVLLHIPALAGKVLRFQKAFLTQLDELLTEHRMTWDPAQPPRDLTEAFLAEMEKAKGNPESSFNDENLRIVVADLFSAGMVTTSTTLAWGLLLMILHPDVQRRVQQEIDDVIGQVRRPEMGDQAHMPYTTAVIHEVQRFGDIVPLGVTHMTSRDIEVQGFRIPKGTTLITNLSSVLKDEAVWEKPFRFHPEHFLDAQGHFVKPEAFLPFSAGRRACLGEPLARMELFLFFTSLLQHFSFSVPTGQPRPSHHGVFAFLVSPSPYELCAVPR
Sequence of Cytochrome P450 3A4 (P08684 whole entry): as the sequence (P08684 whole entry) above
Sequence of Cytochrome P450 2C9 (P11712 whole entry): as the sequence (P11712 whole entry) above

With `COc1ccc(NC(=O)N2CCC(c3nc(-c4ccc5ccccc5n4)no3)CC2)cc1`, at Protein smoothened [1], the IC50 is greater than 2.5 µM. Moreover, the inhibition on Protein smoothened [2] is 68%.

As to `Cn1c(-c2noc(C3CCN(C(=O)Nc4ccccc4Cl)CC3)n2)nc2ccccc21`, the IC50 with Shh Light II [3] was 0.43 µM; at Protein smoothened [1], 1 µM; on Protein smoothened [6], 4.5 µM. Moreover, the microsomal CLint in [4] came out at 174 µL/min/mg. This compound also displayed a logD in data set [5] of 2.85. Also, the values for the inhibition at 10 µM at CYP2C9 and at CYP3A4 were 44% and 35%, respectively.

`COc1ccccc1NC(=O)N1CCC(c2nc(-c3ccc4ccccc4n3)no2)C1` (configuration not stated) showed an inhibition at 10 µM with Shh Light II [7] of 15%. The inhibition at Protein smoothened [8] came out at 38%.

Take `O=C(NC1CCS(=O)(=O)CC1)N1CCC(c2nc(-c3ccc4ccccc4n3)no2)CC1`: the IC50 is 0.36 µM with Shh Light II [3], 0.86 µM on Protein smoothened [1] and 1.6 µM on Protein smoothened [6]. The compound further gave a microsomal CLint in data set [4] of 8 µL/min/mg. In [9], this compound gave a clearance of 2.4 L/h/kg. The half-life in [10] was 0.9 h.

For the compound `O=C(NC1CCC(F)(F)CC1)N1CCN(c2nc(-c3ccc4ccccc4n3)no2)CC1`, the IC50 in the data set with Shh Light II [3] was 0.005 µM; on Protein smoothened [6] it was 0.039 µM. The microsomal CLint stood at 61 µL/min/mg in data set [4] and 8 µL/min/mg in data set [11]. The clearance in data set [9] worked out at 1.92 L/h/kg; in data set [12], 1.2 L/h/kg. The logD in [5] was 2.67. Besides, the results for the half-life in [10] and in [13] were 1.3 h and 1.1 h, respectively. In addition, the “inhibition (INH)” value in [14] is “Not Active”. The Activity entry in data set [15] is given as “Not Active”.

The compound `COc1ccccc1NC(=O)N1CC(c2nc(-c3ccc4ccccc4n3)no2)C1` came in with an inhibition at 10 µM in the data set with Shh Light II [7] of 28%. In addition, the inhibition on Protein smoothened [8] worked out at 39%.

On to `O=C(Nc1ccccc1Cl)N1CCC(c2nc(-c3ccc4ccccc4n3)no2)CC1`, for which the IC50 worked out at 0.51 µM in the data set with Shh Light II [3], 0.38 µM on Protein smoothened [1] and 3.5 µM on Protein smoothened [6]. Also, the microsomal CLint in data set [4] was greater than 200 µL/min/mg; in data set [16], 65 µL/min/mg; in data set [11], 45 µL/min/mg. The compound further yielded a clearance in [9] of 0.66 L/h/kg. In [5], this compound gave a logD of 4.25. Also, the fraction unbound in data set [17] turned out to be 0.01; in data set [18] it was 0.005. The compound further yielded a bioavailability in data set [19] of 38%. The results for the inhibition at 10 µM on CYP2C9 and at CYP3A4 were 62% and 58%, respectively. Further, the inhibition in data set [20] was 62%.

Regarding `O=C(NC1CCCCC1)N1CCN(c2nc(-c3ccc4ccccc4n3)no2)CC1`, the IC50 in the data set on Shh Light II [3] was 0.053 µM; on Protein smoothened [1] it was 0.045 µM; at Protein smoothened [6] it was 0.18 µM; in [21], greater than 30 µM. Further, the values for the microsomal CLint in [4], in data set [16] and in data set [11] were 189 µL/min/mg, 54 µL/min/mg and 60 µL/min/mg, respectively. Besides, the clearance in data set [9] came out at 3.24 L/h/kg; in data set [12], 0.96 L/h/kg. Moreover, in [5], the logD is 2.76. Besides, the bioavailability in data set [19] is 24%. In addition, the figures for the half-life in data set [10] and in data set [13] were 1.1 h and 1.4 h, respectively. The “inhibition (INH)” value in data set [14] is listed as “Not Active”. Also, in data set [15], the Activity result was “Not Active”.

Consider `O=C(NC1CCC(O)CC1)N1CCC(c2nc(-c3ccc4ccccc4n3)no2)CC1` (configuration not stated), for which the IC50 in the data set with Shh Light II [3] came out at 2.7 µM; on Protein smoothened [1] it was 2.5 µM. The inhibition on Protein smoothened [22] was 65%.

Take `COc1ccccc1NC(=O)N1CCC(c2nc(-c3ncccc3C)no2)CC1`: the inhibition at Protein smoothened [23] is 51%.

`Cn1c(-c2noc(N3CCN(C(=O)NC4CCCCC4)CC3)n2)nc2ccccc21`: the IC50 came to 0.005 µM in the data set on Shh Light II [3], 0.003 µM at Protein smoothened [1] and 0.033 µM at Protein smoothened [6]. The same compound displayed a microsomal CLint in data set [4] of 119 µL/min/mg. The clearance in data set [9] is 1.56 L/h/kg. Besides, in data set [5], the logD came out at 2.57. For the same compound, the bioavailability in data set [19] stood at 10%.

For `Cn1c(-c2noc(C3CCN(C(=O)NC4CCCCC4)CC3)n2)nc2ccccc21`, the IC50 stood at 0.089 µM with Shh Light II [3], 0.35 µM on Protein smoothened [1] and 1.1 µM on Protein smoothened [6]. Moreover, the microsomal CLint in data set [4] came to 192 µL/min/mg. Moreover, in data set [9], the clearance was determined as 1.56 L/h/kg. Besides, in data set [17], the fraction unbound was 0.02. In addition, the bioavailability in [19] turned out to be 59%. The half-life in [10] was 1.3 h.

Regarding `O=C(NC1CCCCC1)N1CCC(c2nc(-c3ccc4ccccc4n3)no2)CC1`, the figures for the IC50 in the data set with Shh Light II [3], on Protein smoothened [1] and at Protein smoothened [6] were 0.057 µM, 0.28 µM and 1.6 µM, respectively. This compound also returned a microsomal CLint in data set [4] greater than 300 µL/min/mg. In [18], this compound displayed a fraction unbound of 0.005.

For `CS(=O)(=O)c1ccc(NC(=O)N2CCC(c3nc(-c4ccc5ccccc5n4)no3)CC2)c(Cl)c1`, the values for the IC50 on Protein smoothened [1] and on Protein smoothened [6] were 1.5 µM and 4.1 µM, respectively. In data set [5], this compound returned a logD of 2.8.

With `Cc1cccnc1-c1noc(C2CCN(C(=O)Nc3ccccc3Cl)CC2)n1`, the inhibition at Protein smoothened [24] worked out at 63%.

For `COc1ccccc1NC(=O)N1CCC(c2nnc(-c3ccc4ccccc4n3)o2)CC1`, the IC50 at Protein smoothened [1] is 4.7 µM. Also, in the data set with Shh Light II [25], the inhibition at 20 µM came to 57%.

With `O=C(Nc1ccccc1Cl)N1CCN(c2nc(-c3ccc4ccccc4n3)no2)CC1`, the IC50 in the data set on Shh Light II [3] is 0.14 µM; at Protein smoothened [1], 0.17 µM; at Cytochrome P450 2D6, greater than 25 µM; against Cytochrome P450 2C9, greater than 25 µM; against Cytochrome P450 3A4 it was greater than 25 µM; at Protein smoothened [6], 0.7 µM. The compound further yielded an IC50 in data set [21] of 12 µM. Also, in data set [5], the logD worked out at 2.95.
